Entries after “also recorded” stand apart in the source; their conditions may differ.
Columns and labels:
Type in all cases: biochemical
[1] = target: T1, HDAC11 (Homo sapiens, UniProt Q96DB2); assay: HDAC11 profiling of SHA anchor
T1 sequence (Q96DB2 1-347): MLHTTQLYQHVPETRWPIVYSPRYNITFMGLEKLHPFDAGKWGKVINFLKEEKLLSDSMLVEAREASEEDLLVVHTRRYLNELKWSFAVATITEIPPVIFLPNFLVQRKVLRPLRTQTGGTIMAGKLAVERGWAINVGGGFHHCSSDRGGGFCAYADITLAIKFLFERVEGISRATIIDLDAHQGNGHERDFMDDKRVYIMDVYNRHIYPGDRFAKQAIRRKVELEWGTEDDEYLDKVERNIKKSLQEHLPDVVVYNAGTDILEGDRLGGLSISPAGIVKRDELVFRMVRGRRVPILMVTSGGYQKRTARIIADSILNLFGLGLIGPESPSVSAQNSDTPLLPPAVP

[2] = target: T2, HDAC7 (Homo sapiens, UniProt Q8WUI4); assay: HDAC7 profiling of SHA anchor and early peptides
T2 sequence (Q8WUI4 1-952): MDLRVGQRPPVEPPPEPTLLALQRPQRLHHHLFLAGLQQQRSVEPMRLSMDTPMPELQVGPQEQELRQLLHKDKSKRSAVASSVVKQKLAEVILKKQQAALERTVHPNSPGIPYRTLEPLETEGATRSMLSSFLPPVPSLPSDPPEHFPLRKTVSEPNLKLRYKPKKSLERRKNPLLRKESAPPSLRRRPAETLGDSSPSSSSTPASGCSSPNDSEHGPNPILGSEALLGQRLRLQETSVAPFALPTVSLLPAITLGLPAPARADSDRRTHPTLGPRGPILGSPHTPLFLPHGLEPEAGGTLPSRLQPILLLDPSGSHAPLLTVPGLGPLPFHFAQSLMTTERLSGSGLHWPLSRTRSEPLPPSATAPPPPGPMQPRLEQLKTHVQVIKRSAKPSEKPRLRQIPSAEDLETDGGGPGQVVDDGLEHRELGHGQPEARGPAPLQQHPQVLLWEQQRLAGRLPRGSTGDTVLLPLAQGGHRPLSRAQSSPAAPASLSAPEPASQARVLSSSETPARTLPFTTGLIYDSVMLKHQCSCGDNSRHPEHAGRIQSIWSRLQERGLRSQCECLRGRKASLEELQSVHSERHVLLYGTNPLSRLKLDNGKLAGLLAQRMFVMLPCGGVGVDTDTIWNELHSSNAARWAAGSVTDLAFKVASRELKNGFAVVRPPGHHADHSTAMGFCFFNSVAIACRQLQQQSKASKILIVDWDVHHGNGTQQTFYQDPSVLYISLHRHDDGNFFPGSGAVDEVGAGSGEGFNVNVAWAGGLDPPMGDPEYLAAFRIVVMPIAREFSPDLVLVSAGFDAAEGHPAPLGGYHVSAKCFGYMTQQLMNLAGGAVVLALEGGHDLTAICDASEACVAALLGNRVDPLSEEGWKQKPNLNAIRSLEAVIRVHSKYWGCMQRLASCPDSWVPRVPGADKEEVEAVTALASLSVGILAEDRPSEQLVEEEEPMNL

[3] = target: T3, HDAC10 (Homo sapiens, UniProt Q969S8); assay: HDAC10 profiling of SHA anchor
T3 sequence (Q969S8 1-669): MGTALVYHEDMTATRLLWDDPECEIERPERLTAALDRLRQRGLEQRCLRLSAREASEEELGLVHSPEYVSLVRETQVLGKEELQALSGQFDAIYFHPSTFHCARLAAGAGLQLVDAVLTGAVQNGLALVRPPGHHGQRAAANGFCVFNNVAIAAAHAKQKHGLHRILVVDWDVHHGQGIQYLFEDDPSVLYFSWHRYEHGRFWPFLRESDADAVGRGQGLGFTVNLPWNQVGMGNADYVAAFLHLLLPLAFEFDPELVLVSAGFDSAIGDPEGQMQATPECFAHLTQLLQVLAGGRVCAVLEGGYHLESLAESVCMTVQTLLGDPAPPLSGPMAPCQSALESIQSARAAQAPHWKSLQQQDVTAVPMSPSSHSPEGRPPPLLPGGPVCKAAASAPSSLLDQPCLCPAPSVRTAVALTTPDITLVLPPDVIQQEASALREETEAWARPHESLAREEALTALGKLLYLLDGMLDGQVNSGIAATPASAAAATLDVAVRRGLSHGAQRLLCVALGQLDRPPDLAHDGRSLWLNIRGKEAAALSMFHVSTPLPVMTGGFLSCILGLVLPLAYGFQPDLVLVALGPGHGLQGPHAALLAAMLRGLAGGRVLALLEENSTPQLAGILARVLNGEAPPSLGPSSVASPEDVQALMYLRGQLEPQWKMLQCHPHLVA
Excerpt: Supplement 41467_2021_23609_MOESM7_ESM.zip/HDACActivity_RawData.xlsx, sheet "SHA" | column: HDAC10

binding to HDAC11 [1]: no binding
HDAC11 raw activity signal ([1]; Conc. 1.00E-05 M): 857709
HDAC11 raw activity signal ([1]; Conc. 1.11E-06 M): 1073570
HDAC11 raw activity signal ([1]; Conc. 1.23E-07 M): 1094662
HDAC11 raw activity signal ([1]; Conc. 1.37E-08 M): 1209318
HDAC11 raw activity signal ([1]; Conc. 1.52E-09 M): 1051037
HDAC11 raw activity signal ([1]; Conc. 3.33E-06 M): 847001
HDAC11 raw activity signal ([1]; Conc. 3.70E-07 M): 1077158
HDAC11 raw activity signal ([1]; Conc. 4.12E-08 M): 1064044
HDAC11 raw activity signal ([1]; Conc. 4.57E-09 M): 1134026
HDAC11 raw activity signal ([1]; Conc. 5.08E-10 M): 1061165
HDAC7 raw activity signal ([2]; Conc. 1.00E-05 M): 490633
HDAC7 raw activity signal ([2]; Conc. 1.11E-06 M): 609377
HDAC7 raw activity signal ([2]; Conc. 1.23E-07 M): 577915
HDAC7 raw activity signal ([2]; Conc. 1.37E-08 M): 439997
HDAC7 raw activity signal ([2]; Conc. 1.52E-09 M): 431089
HDAC7 raw activity signal ([2]; Conc. 3.33E-06 M): 551905
HDAC7 raw activity signal ([2]; Conc. 3.70E-07 M): 580293
HDAC7 raw activity signal ([2]; Conc. 4.12E-08 M): 536345
HDAC7 raw activity signal ([2]; Conc. 4.57E-09 M): 413084
HDAC7 raw activity signal ([2]; Conc. 5.08E-10 M): 366480
HDAC10 raw activity signal ([3]; Conc. 1.00E-05 M): 78535
HDAC10 raw activity signal ([3]; Conc. 1.11E-06 M): 200617
HDAC10 raw activity signal ([3]; Conc. 1.23E-07 M): 227566
HDAC10 raw activity signal ([3]; Conc. 1.37E-08 M): 231393
HDAC10 raw activity signal ([3]; Conc. 1.52E-09 M): 230961
HDAC10 raw activity signal ([3]; Conc. 3.33E-06 M): 158362
HDAC10 raw activity signal ([3]; Conc. 3.70E-07 M): 217828
HDAC10 raw activity signal ([3]; Conc. 4.12E-08 M): 237632
HDAC10 raw activity signal ([3]; Conc. 4.57E-09 M): 278288
HDAC10 raw activity signal ([3]; Conc. 5.08E-10 M): 236379
Compound: N[C@@H](CCCCCS)C(=O)O [SHA, 2S-2-amino-7-sulfanylheptanoic acid]
binding to HDAC7 [2]: not detected binding; also recorded: no binding

— article PMC8185074, “Anchor extension: a structure-guided approach to design cyclic peptides targeting enzyme active sites” (Nature Communications, 2021)
